Columns and labels:
Assay type in all cases: in vivo
[1] = test system: Grass Weeds; assay: Post-emergent application in combination with other herbicides, percent control of grass weeds; conditions: 31.25 g ai/ha
Procedure: All test compounds were dissolved in acetone and applied to the test units in a volume of 187 l/ha. Test materials were applied at rates ranging from 125 g ai/ha to 1000 g ai/ha using a track sprayer equipped with a TJ8001E even flow flat fan spray nozzle. Plants were arranged on a shelf so that the top of the canopy (post-emerge) or top of the soil surface (pre-emerge) was 40-45 cm below the nozzle. Pressurized air was used to force the test solution through the nozzle as it was mechanically advanced (via electrically driven chain drive) over the top of all test plants/pots. This application simulates a typical commercial field herbicide application. In the post-emerge test, a commercial non-ionic surfactant was also included (0.25% v/v) to enhance wetting of the leaf surfaces Qf target plants at rates ranging from 63 g ai/ha to 1000 g ai/ha. For post-emerge tests, seeds were planted 8-21 days prior to the test to allow emergence and good foliage development prior to application of the test substances. At the time of the post-emerge application, plants of all species were usually at the 2-3 leaf stage of development. Post-emerge test units were always bottom-watered. At 14 days after application of the test materials, phytotoxicity ratings were recorded. A rating scale of 0-100 was used as previously described in Research Methods in Weed Science, 2nd edition, B. Truelove, Ed., Southern Weed Science Society, Auburn University, Auburn, Ala., 1977. Briefly, “0” corresponds to no damage and “100” corresponds to complete death of all plants in the test unit. This scale was used both to determine efficacy against weed species and damage to crop species. Herbicide activity data for various compounds of this invention, which are shown by compound number in Tables 1-9, are shown in Tables 13 and 14. […] (Note: Weed species abbreviations are from the Composite List of Weeds published by the Weed Science Society of America, 1989.) The following examples illustrate the utility of combinations of compounds of this invention and existing herbicides. The methods used are identical to those for the application of single compounds except the commercial formulations of existing herbicides were added to the spray mixture in the appropriate amounts before spraying. Combination Example 3. Post-emergent Application of Compound 9-1 with Nicosulfuron Combination Example 4. Postemergent Application of Compound 9-1 with Pyridate

[2] = test system: Broadleaf Weeds; assay: Pre-emergent application in combination with other herbicides, percent control of broadleaf weeds; conditions: 62.5 g ai/ha
Procedure: All plants were grown in 10 cm square plastic pots which were filled with a sandy loam soil mix. For preemerge tests, seeds were planted one day prior to application of the test compounds. Immediately after application, test units of the pre-emerge applications were watered at the soil surface to incorporate the test materials. Subsequently, these test units were bottom-watered.
All test compounds were dissolved in acetone and applied to the test units in a volume of 187 l/ha. […] Plants were arranged on a shelf so that the top of the canopy (post-emerge) or top of the soil surface (pre-emerge) was 40-45 cm below the nozzle. Pressurized air was used to force the test solution through the nozzle as it was mechanically advanced (via electrically driven chain drive) over the top of all test plants/pots. This application simulates a typical commercial field herbicide application.
At 14 days after application of the test materials, phytotoxicity ratings were recorded. A rating scale of 0-100 was used as previously described in Research Methods in Weed Science, 2nd edition, B. Truelove, Ed., Southern Weed Science Society, Auburn University, Auburn, Ala., 1977. Briefly, “0” corresponds to no damage and “100” corresponds to complete death of all plants in the test unit. This scale was used both to determine efficacy against weed species and damage to crop species. Herbicide activity data for various compounds of this invention, which are shown by compound number in Tables 1-9, are shown in Tables 13 and 14.
(Note: Weed species abbreviations are from the Composite List of Weeds published by the Weed Science Society of America, 1989.)
The following examples illustrate the utility of combinations of compounds of this invention and existing herbicides. The methods used are identical to those for the application of single compounds except the commercial formulations of existing herbicides were added to the spray mixture in the appropriate amounts before spraying. […]
Combination Example 2. Pre-emergent Application of Compound 9-1 with Dimethenamid

[3] = test system: Broadleaf Weeds; assay: Post-emergent application in combination with other herbicides, percent control of broadleaf weeds; conditions: 31.25 g ai/ha
Procedure: All test compounds were dissolved in acetone and applied to the test units in a volume of 187 l/ha. Test materials were applied at rates ranging from 125 g ai/ha to 1000 g ai/ha using a track sprayer equipped with a TJ8001E even flow flat fan spray nozzle. Plants were arranged on a shelf so that the top of the canopy (post-emerge) or top of the soil surface (pre-emerge) was 40-45 cm below the nozzle. Pressurized air was used to force the test solution through the nozzle as it was mechanically advanced (via electrically driven chain drive) over the top of all test plants/pots. This application simulates a typical commercial field herbicide application. […] For post-emerge tests, seeds were planted 8-21 days prior to the test to allow emergence and good foliage development prior to application of the test substances. At the time of the post-emerge application, plants of all species were usually at the 2-3 leaf stage of development. Post-emerge test units were always bottom-watered. At 14 days after application of the test materials, phytotoxicity ratings were recorded. A rating scale of 0-100 was used as previously described in Research Methods in Weed Science, 2nd edition, B. Truelove, Ed., Southern Weed Science Society, Auburn University, Auburn, Ala., 1977. Briefly, “0” corresponds to no damage and “100” corresponds to complete death of all plants in the test unit. This scale was used both to determine efficacy against weed species and damage to crop species. Herbicide activity data for various compounds of this invention, which are shown by compound number in Tables 1-9, are shown in Tables 13 and 14. […] (Note: Weed species abbreviations are from the Composite List of Weeds published by the Weed Science Society of America, 1989.) The following examples illustrate the utility of combinations of compounds of this invention and existing herbicides. The methods used are identical to those for the application of single compounds except the commercial formulations of existing herbicides were added to the spray mixture in the appropriate amounts before spraying. Combination Example 3. Post-emergent Application of Compound 9-1 with Nicosulfuron Combination Example 4. Postemergent Application of Compound 9-1 with Pyridate

Nn1c(C(F)(F)F)cc(=O)n(-c2cc(Oc3ncccc3[N+](=O)[O-])c(Cl)cc2F)c1=O [Compound 9-1, 1-amino-3-[4-chloro-2-fluoro-5-(3-nitro-2-pyridyloxy)phenyl]-6-trifluoromethyl-1,2,3,4-tetrahydropyrimidine-2,4-dione]
Percent Control of Grass Weeds DIGSA [1]: 10%
Percent Control of Grass Weeds DIGSA ([1]; Combination Example 4): 10%
Percent Control of Grass Weeds ECHCG [1]: 0%
Percent Control of Grass Weeds ECHCG ([1]; Combination Example 4): 0%
Percent Control of Grass Weeds SETVI [1]: 10%
Percent Control of Grass Weeds SETVI ([1]; Combination Example 4): 10%
Percent Control of Grass Weeds SORHA [1]: 10%
Percent Control of Grass Weeds SORHA ([1]; Combination Example 4): 10%
Percent Control of Broadleaf Weeds ABUTH [2]: 95%
Percent Control of Broadleaf Weeds ABUTH ([2]; Combination Example 2): 95%
Percent Control of Broadleaf Weeds AMARE [2]: 100%
Percent Control of Broadleaf Weeds AMARE ([2]; Combination Example 2): 100%
Percent Control of Broadleaf Weeds AMBEL [2]: 40%
Percent Control of Broadleaf Weeds AMBEL ([2]; Combination Example 2): 40%
Percent Control of Broadleaf Weeds CASOB [2]: 10%
Percent Control of Broadleaf Weeds CASOB ([2]; Combination Example 2): 10%
Percent Control of Broadleaf Weeds CHEAL [2]: 100%
Percent Control of Broadleaf Weeds CHEAL ([2]; Combination Example 2): 100%
Percent Control of Broadleaf Weeds IPOHE [2]: 50%
Percent Control of Broadleaf Weeds IPOHE ([2]; Combination Example 2): 50%
Percent Control of Broadleaf Weeds ABUTH [3]: 60%
Percent Control of Broadleaf Weeds ABUTH ([3]; Combination Example 4): 60%
Percent Control of Broadleaf Weeds AMARE [3]: 60%
Percent Control of Broadleaf Weeds AMARE ([3]; Combination Example 4): 60%
Percent Control of Broadleaf Weeds AMBEL [3]: 40%
Percent Control of Broadleaf Weeds AMBEL ([3]; Combination Example 4): 40%
Percent Control of Broadleaf Weeds CASOB [3]: 0%
Percent Control of Broadleaf Weeds CASOB ([3]; Combination Example 4): 0%
Percent Control of Broadleaf Weeds CHEAL [3]: 90%
Percent Control of Broadleaf Weeds CHEAL ([3]; Combination Example 4): 90%
Percent Control of Broadleaf Weeds IPOHE [3]: 80%
Percent Control of Broadleaf Weeds IPOHE ([3]; Combination Example 4): 80%
